Experiments:
Type in all cases: cell-based, rat
[1] = tested on: INS-1 832/3 cells; experiment: TAQMAN real-time quantitative RT-PCR of miRNA expression in INS-1 832/3 cells; conditions: for increase of the corresponding miRNA transcripts after transfection of precursor: overexpression experiments, TAQMAN real-time quantitative RT-PCR
Protocol: INS-1 832/3 and 832/13 cells were maintained in RPMI 1640 with 10% FBS and 11 mM glucose. For GLP-1 treatment, GLP-1 (7-37) amide (ABCHEM) was added in the media in the presence of 16 mM glucose for 24 hours. Total RNA was extracted with TRIZOL as in Example 1. Rat islet isolation and treatment was as follows. Pancreatic islets of Langerhans were isolated from the pancreas of normal Sprague-Dawley rats (Charles River, Ind.) by collagenase digestion and discontinuous Ficoll gradient separation (15). Islets were cultured for 2 hours in RPMI 1640 medium with 11 mM glucose for recovery from the isolation process. Then 100-200 islets were treated with 50 nM GLP-1 in the media with 11 mM glucose for 24 hours. RNA was extracted with TRIZOL as in Example 1 for quantification of microRNA species.
Fluorogenic TAQMAN detector probes specific for miR-132 (Cat# TM457), miR-212 (Cat# TM515), miR-375 (Cat#TM564), and miR-217 (Cat#1133) were purchased from Applied Biosystems (Foster City, Calif.). The TAQMAN RT-PCR reactions were performed according to the manufacturer's instructions.
Relative miRNA levels for the miRNAs of interest were determined by real-time reverse transcription reaction using the ABI PRISM 7900 Sequence Detection System from Applied Biosystems (Foster City, Calif.) according to the manufacturer's protocol. Briefly, 10 ng of total RNA was mixed with 1 U MultiScribe Reverse Transcriptase, 0.25 U RNase Inhibitor, 3 μL hairpin-looped miRNA-specific RT primer, 1 mM dNTPs and 1× Reverse Transcription Buffer in a total volume of 15 μL. The mixture was incubated at 16° C. for 30 minutes, 42° C. for another 30 minutes, and the reaction was stopped by heating to 85° C. for 5 minutes. Real time PCR reaction was set up in 20 μL volume with 1.33 μL first strand cDNA, 1× TAQMAN MicroRNA Assay Mix and 1× TAQMAN Universal PCR Master Mix. After activation of the AMPLITAQ Gold DNA polymerase at 95° C. for 10 minutes, 40 cycles of two-step PCR were run (95° C. for 15 seconds and 60° C. for 60 seconds). Data were collected and analyzed with SDS v.2.2.2 software (Applied Biosystems). 4.5S RNA or U6 probe (Applied Biosystems) was used as a reference to determine the relative abundance of each miRNA in different samples. TAQMAN RT-PCR was performed according the manufacturer's instructions.
The absolute miRNA levels were determined by reverse transcription reactions in GeneAmp PCR system 9700 followed by amplification using the ABI PRISM 7900HT Sequence Detection System from Applied Biosystems (Foster City, Calif.) through 40 cycles. 4.5S RNA (H) probe (Cat#TM1716) or U6 (Cat#TM1973) was used as reference to determine the relative abundance of each miRNA in different samples. The induction of miR-132 and miR-212 expression by GLP-1 started around 4 hour post-GLP-1 treatment, peaked at 24 hours and was sustained up to 48 hours (FIG. 2).

[2] = tested on: INS-1 832/3 cells; experiment: LANCE cAMP assay in INS-1 832/3 cells; conditions: one hour stimulation, 5.5 mM glucose
Protocol: (§1) For the Lance cAMP assay, INS1 832/3 and 832/13 cells were grown to near confluency in flasks. 9000 cells were incubated with GLP-1 or Exendin-4 in stimulation buffer at concentrations as indicated in figure legends for 1 hour at 37° C. cAMP levels were measured using LANCE cAMP assay kit in 384-well format according to manufacture's protocol (Perkin Elmer, Waltham, Mass.). Counts were calculated to cAMP concentrations using a cAMP standard curve. Each condition was measured in quadruplicate.

[3] = tested on: INS-1 832/13 cells; experiment: LANCE cAMP assay in INS-1 832/13 cells; conditions: for cAMP levels: cells overexpressing the precursor vs scramble control
Description: (§2) We overexpressed the precursors of miR-132 and miR-212 to evaluate their possible contribution to β-cell function. MicroRNA miR-375 was included as a control as it been reported to have an inhibitory effect on GDIS (Poy et al., Nature 432: 226-230 (2004)). Chemically modified Pre-miR™ miRNA precursor molecules and Anti-miR™ miRNA inhibitors were purchased from Ambion (Foster City, Calif.). miRCURY LNA™ microRNA knockdown oligonucleotides were purchased from Exiqon (Woburn, Mass.). The oligonucleotide molecules were delivered to the cells by the Nucleofector Device (Amaxa, Gaithersburg, Md.). In brief, INS-1 cells were trypsinized, centrifuged, and resuspended in 100 μl Nucleofector solution V. Then 100-500 pmole RNA oligonucleotides were transfected to 3-million cells at the concentration of 1-5 μM with the Amaxa Nucleofector Device. Scramble controls from the vendors were used with the same transfection method. After electroporation, the cells were transferred to regular culture medium and then split into replicates in 96-well plates. Insulin secretion assay or LANCE cAMP assay were performed 48 hours post electroporation.
as §1

[4] = tested on: INS-1 832/3 cells; experiment: glucose dependent insulin secretion (GDIS) assay in INS-1 832/3 cells; conditions: for basal insulin secretion at low glucose: 2 mM glucose; for basal insulin secretion at low glucose / insulin release stimulated by KCl / insulin release as percentage of insulin secretion of intracellular insulin content / glucose-dependent insulin secretion (GDIS): 48 hours post-transfection; for GLP-1 potentiation of GDIS: 16 mM glucose + 10 nM GLP-1, 48 hour post transfection; for GLP-1 potentiation of GDIS / glucose-dependent insulin secretion (GDIS): vs scramble control; for insulin release stimulated by KCl: 30 mM KCl; for glucose-dependent insulin secretion (GDIS): two hour incubation in KRB; for insulin content: cell lysates, normalized to total protein
Description: as §2
(§3) INS-1 cell glucose dependent insulin secretion (GDIS) assay was performed as follows. The GDIS assay was performed with cells grown to near confluency in 96-well plates. Prior to the assay, cells were washed once with PBS and pre-incubated for two hours in freshly prepared Krebs-Ringer Bicarbonate (KRB) medium without glucose. The medium were then replaced with KRB with 2, 8 or 16 mM glucose or along with 10 nM GLP-1. The cells were incubated for another two hours in a CO2 incubator. The media was then removed at the end of incubation, and assayed for insulin levels by Ultra-sensitive Rat Insulin ELISA kit (ALPCO, Salem, N.H.) or insulin immunoassay by Gyrolab workstation (GYROS AB, Uppsala, Sweden). Intracellular insulin was extracted by acid ethanol method for measuring intracellular insulin content. Total protein was measured by Pierce 660 nm Protein Assay from Pierce Biotechnology, Inc. (Rockford, Ill.).

[5] = tested on: INS-1 832/13 cells; experiment: glucose dependent insulin secretion (GDIS) assay in INS-1 832/13 cells; conditions: transfected cells vs scramble control
Description: as §2, §3

[6] = tested on: INS-1 832/3 cells; experiment: TAQMAN quantification of insulin (Ins1) transcripts in INS-1 832/3 cells; conditions: normalized to β-actin
Description: as §2
We further measured the insulin content and found it was unchanged by miR-132 or miR-212 overexpression (FIG. 7B). […] Furthermore, we measured insulin transcripts by TAQMAN analysis in cells over-expressing these microRNA molecules. Ins1 TAQMAN probe from Applied Biosystems (Foster City, Calif.) was used to measure insulin transcript levels and normalized to β-actin. […] In this series of experiments, miR-132, miR-212 and miR-375 transcripts were increased by about 1000-fold, 2000-fold, and 8-fold, respectively, as assayed by TAQMAN real-time quantitative RT-PCR.

[7] = 50 nM GLP-1, 50 nM Exendin-4, 5 μM IBMX, 1 μM Foskolin (FIG. 6A)

| Substance | miR-132 expression [1, 7] | miR-212 expression [1, 7] | miR-375 expression [1, 7] | cAMP accumulation [2] | cAMP accumulation ([3]; one hour stimulation, 5.5 mM glucose) | increase of the corresponding miRNA transcripts after transfection of precursor [1] | cAMP levels [3] | basal insulin secretion at low glucose [4] | GLP-1 potentiation of GDIS [4] | insulin release stimulated by KCl [4] | insulin release as percentage of insulin secretion of intracellular insulin content [4] | glucose-dependent insulin secretion (GDIS) [4] | insulin content [4] | effect of GLP-1 (GLP-1 potentiation) [5] | insulin secretion (GDIS) [5] | insulin (Ins1) transcripts [6] |
| --- | --- | --- | --- | --- | --- | --- | --- | --- | --- | --- | --- | --- | --- | --- | --- | --- |
| Exendin-4: GLP-1 analog, cAMP raising agent | significantly increased | significantly increased | remained unchanged | dose-dependent accumulation | loss of such response |  |  |  |  |  |  |  |  |  |  |  |
| miR-132: chemically modified Pre-miR miRNA precursor molecule (Ambion) transfected to overexpress miR-132 (guide UAACAGUCUACAGCCAUGGUCG; chemically modified Pre-miR precursor, pattern not given here) |  |  |  |  |  | about 1000 fold | no changes | unchanged | robustly increased | significantly enhanced | significantly increased | significantly enhanced | unchanged | augmented | significantly increased | no effect |
| miR-212: chemically modified Pre-miR miRNA precursor molecule (Ambion) transfected to overexpress miR-212 (guide UAACAGUCUCCAGUCACGGCC; chemically modified Pre-miR precursor, pattern not given here) |  |  |  |  |  | ~2000 fold | no changes | unchanged | enhanced | significantly enhanced | significantly increased | significantly enhanced | unchanged | augmented | significantly increased | no effect |
| miR-375: chemically modified Pre-miR miRNA precursor molecule (Ambion) transfected to overexpress miR-375, control (guide UUUGUUCGUUCGGCUCGCGUGA; chemically modified Pre-miR precursor, pattern not given here) |  |  |  |  |  | ~8 fold |  |  | not |  | decreased | significantly suppressed | reduction |  |  | moderately down-regulated |
